Source: patent US12527886B2, “Radiopharmaceuticals and composition for thrombus imaging” (THE ASAN FOUNDATION, priority 2020, dated 2026)

Experiment: Stability of Tc-99m labeled compound, labeling purity by HPLC
Assay type: physicochemical
Experimental: 2 mL of Tc-99m was added dropwise to a lyophilized vial including 0.1 mg of GP-104, 15 μg of SnCl2, and 10 μg of cysteine, the vial was allowed to stand at room temperature for 10 minutes, and the reaction was terminated by adjusting pH to 7 using a NaOH solution. Labeling purity was confirmed to be 93.21% by HPLC (analysis conditions: Luna C18 250×4.6 mm, phosphate buffer:acetonitrile (100:0, 0 to 5 minutes; 80:20, 5 to 10 minutes; 80:20, 17 minutes; 100:0, 17.1 minutes). 100:0. 20 min), 1.0 mL/min, UV=280 nm).
In order to confirm the effect of cysteine addition after the reaction, the following experiment was performed: 0.1 mg of GP-104 was dissolved in water for injection, the pH was adjusted to about 3.5 when 10 μL of SnCl2 (1.5 mg/mL) and 2 mL of Tc-99m were added thereto, and the resulting mixture was allowed to stand at room temperature for 10 minutes. The reaction was terminated by adjusting the pH to 7 using a NaOH solution and 10 μL of cysteine (1.0 mg/mL). Labeling purity was confirmed to be 91.4% using HPLC in the same manner as in Example 2-7.
After 0.1 mg of GP-104 was dissolved in water for injection, pH was adjusted to about 3.5 and the resulting solution was allowed to stand at room temperature for 10 minutes when 10 μL of SnCl2 (1.5 mg/mL), 10 μL of cysteine (1.0 mg/mL) and 2 mL of Tc-99m were added thereto, and the reaction was terminated by adjusting the pH to 7 using a NaOH solution. Labeling purity was confirmed to be 94.84% using HPLC in the same manner as in Example 2-7.
HCl and NaOH was additionally added dropwise to the solution of Example 2-8 to perform a stability evaluation by adjusting the final pH of the solution to acidic (pH 5.5) and basic (pH 8.5) conditions, and labeling purity was confirmed using HPLC in the same manner as in Example 2-7.
HCl and NaOH was additionally added dropwise to the solution of Example 2-9 to perform a stability evaluation by adjusting the final pH of the solution to acidic (pH 5.5) and basic (pH 8.5) conditions, and labeling purity was confirmed using HPLC in the same manner as in Example 2-7.
HCl and NaOH was additionally added dropwise to the solution of Example 2-10 to perform a stability evaluation by adjusting the final pH of the solution to acidic (pH 5.5) and basic (pH 8.5) conditions, and labeling purity was confirmed using HPLC in the same manner as in Example 2-7.
0.1 mg of GP-105 was dissolved in water for injection, the pH was adjusted to about 3.5 when 10 μL of SnCl2 (1.5 mg/mL) and 2 mL of Tc-99m were added thereto, and the resulting mixture was allowed to stand at room temperature for 10 minutes. The reaction was terminated by adjusting the pH to 7 using a NaOH solution and 10 μL of cysteine (1.0 mg/mL). Labeling purity was confirmed to be 98.1% using HPLC in the same manner as in Example 2-7.
HCl and NaOH was additionally added dropwise to the solution of Example 2-12 to perform a stability evaluation by adjusting the final pH of the solution to acidic (pH 5.5) and basic (pH 8.5) conditions, and labeling purity was confirmed using HPLC in the same manner as in Example 2-7.
HCl and NaOH was additionally added dropwise to the solution of Example 2-13 to perform a stability evaluation by adjusting the final pH of the solution to acidic (pH 5.5) and basic (pH 8.5) conditions, and labeling purity was confirmed using HPLC in the same manner as in Example 2-7.
HCl and NaOH was additionally added dropwise to the solution of Example 2-14 to perform a stability evaluation by adjusting the final pH of the solution to acidic (pH 5.5) and basic (pH 8.5) conditions, and labeling purity was confirmed using HPLC in the same manner as in Example 2-7.

O=C(O)C[C@H](NC(=O)[C@@H]1CCCN(C(=O)CCC2CCNCC2)C1)c1cncc(OCCNC(=O)CN2CC(=O)[O][99Tc-]3([O]C(=O)C2)[O]C(=O)CN(CC(=O)NCCOc2cncc([C@H](CC(=O)O)NC(=O)[C@@H]4CCCN(C(=O)CCC5CCNCC5)C4)c2)CC(=O)[O]3)c1 [[Tc-99m]GP-105]
radiochemical purity (HPLC) (Ex 4-3, addition of cysteine after reaction, NaOH mixed, 0 hour): 98.06%
radiochemical purity (HPLC) (Ex 4-3, addition of cysteine after reaction, NaOH mixed, 1 hour): 95.17%
radiochemical purity (HPLC) (Ex 4-3, addition of cysteine after reaction, NaOH mixed, 2 hours): 94.14%
radiochemical purity (HPLC) (Ex 4-3, addition of cysteine after reaction, NaOH mixed, 3 hours): 91.91%
radiochemical purity (HPLC) (Ex 4-3, addition of cysteine after reaction, NaOH mixed, 4 hours): 89.00%
radiochemical purity (HPLC) (Ex 4-3, addition of cysteine after reaction, NaOH separately, 0 hour): 99.39%
radiochemical purity (HPLC) (Ex 4-3, addition of cysteine after reaction, NaOH separately, 1 hour): 99.04%
radiochemical purity (HPLC) (Ex 4-3, addition of cysteine after reaction, NaOH separately, 2 hours): 97.02%
radiochemical purity (HPLC) (Ex 4-3, addition of cysteine after reaction, NaOH separately, 3 hours): 91.14%
radiochemical purity (HPLC) (Ex 4-3, addition of cysteine after reaction, NaOH separately, 4 hours): 66.87%
radiochemical purity (HPLC) (solution of Example 2-12 (165 nmol cysteine), pH 5.5, 0 hr): 100%
radiochemical purity (HPLC) (solution of Example 2-12 (165 nmol cysteine), pH 5.5, 2 hr): 85.49%
radiochemical purity (HPLC) (solution of Example 2-12 (165 nmol cysteine), pH 5.5, 4 hr): 82.11%
radiochemical purity (HPLC) (solution of Example 2-12 (165 nmol cysteine), pH 7, 0 hr): 100%
radiochemical purity (HPLC) (solution of Example 2-12 (165 nmol cysteine), pH 7, 2 hr): 94.88%
radiochemical purity (HPLC) (solution of Example 2-12 (165 nmol cysteine), pH 7, 4 hr): 85.55%
radiochemical purity (HPLC) (solution of Example 2-12 (165 nmol cysteine), pH 8.5, 0 hr): 100%
radiochemical purity (HPLC) (solution of Example 2-12 (165 nmol cysteine), pH 8.5, 2 hr): 50.64%
radiochemical purity (HPLC) (solution of Example 2-12 (165 nmol cysteine), pH 8.5, 4 hr): 23.98%
radiochemical purity (HPLC) (solution of Example 2-13 (82.5 nmol cysteine + 82.5 nmol VB1), pH 5.5, 0 hr): 100%
radiochemical purity (HPLC) (solution of Example 2-13 (82.5 nmol cysteine + 82.5 nmol VB1), pH 5.5, 2 hr): 100%
radiochemical purity (HPLC) (solution of Example 2-13 (82.5 nmol cysteine + 82.5 nmol VB1), pH 5.5, 4 hr): 98.63%
radiochemical purity (HPLC) (solution of Example 2-13 (82.5 nmol cysteine + 82.5 nmol VB1), pH 7, 0 hr): 100%
radiochemical purity (HPLC) (solution of Example 2-13 (82.5 nmol cysteine + 82.5 nmol VB1), pH 7, 2 hr): 100%
radiochemical purity (HPLC) (solution of Example 2-13 (82.5 nmol cysteine + 82.5 nmol VB1), pH 7, 4 hr): 94.88%
radiochemical purity (HPLC) (solution of Example 2-13 (82.5 nmol cysteine + 82.5 nmol VB1), pH 8.5, 0 hr): 100%
radiochemical purity (HPLC) (solution of Example 2-13 (82.5 nmol cysteine + 82.5 nmol VB1), pH 8.5, 2 hr): 94.13%
radiochemical purity (HPLC) (solution of Example 2-13 (82.5 nmol cysteine + 82.5 nmol VB1), pH 8.5, 4 hr): 90.17%
